The record followed here is ChEMBL document CHEMBL3301472, “MMV Malaria Box HIV and cytotoxicity screening”.

The structures appear in SMILES notation.

For data set [1], the system named is Human immunodeficiency virus 1. Nature of the data set: MMV: HIV CXCR4-tropic env NL4-3 pseudovirus assay produces luciferase signal in lieu of replicating viral particles Day 3 pi, U87-CD4-CXCR4, % inhibition at 5 mM compound. Format: functional. On the set-up: dose or concentration left out as unconfirmed. The following applies: Human immunodeficiency virus 1, NL4-3, U87.CD4.CXCR4, 72 h.

Data set [2] in a line: MMV: MTT Cytotoxicity Assay Day 3 pi, U87-CD4-CCR5 cells, % cell death @ 5mM compound. Format: toxicity, cell-based. Particulars: human, u87-cd4-ccr5, 5000 µM.
The nature of data set [3]: MMV: MTT Cytotoxicity Assay Day 3 pi, U87-CD4-CXCR4 cells, % cell death @ 5mM compound. Particulars: human, u87-cd4-cxcr4, 5000 µM. The data set is classed as toxicity, cell-based.
For data set [4], the system named is Human immunodeficiency virus 1. Nature of the data set: MMV: HIV JRFL CCR5-tropic replication-competent virus, virus & compound washed out Day 1 pi, P24 ELISA Day 7 pi, U87-CD4-CCR5, % inhibition at 5 mM compound. Further details: dose or concentration left out as unconfirmed. The data set is classed as functional. The following applies: Human immunodeficiency virus 1, JR-FL. For orientation: ELISA stands for enzyme-linked immunosorbent assay.

A short description of data set [5]: MMV: MTT Cytotoxicity Assay Day 7 pi of Assay #6 (compound washed out Day 1 pi), U87-CD4-CCR5 cells, % cell death @ 5mM compound. Format: toxicity, cell-based. Particulars: human, u87-cd4-ccr5, 5000 µM.
Data set [6] can be described thus: MMV: MTT Cytotoxicity Assay Day 7 pi of Assay #7 (compound washed out Day 1 pi), U87-CD4-CXCR4 cells, % cell death @ 5mM compound. The data set is classed as toxicity, cell-based. The following applies: human, u87-cd4-cxcr4, 5000 µM.
Data set [7] in a line: MMV: MTT Cytotoxicity Assay Day 7 pi of Assay #10 (NO washout), U87-CD4-CCR5 cells, % cell death @ 5mM compound. Particulars: human, u87-cd4-ccr5, 5000 µM. Format: toxicity, cell-based.
Data set [8] can be described thus: MMV: MTT Cytotoxicity Assay Day 7 pi of Assay #11 (NO washout), U87-CD4-CXCR4 cells, % cell death @ 5mM compound. The following applies: human, u87-cd4-cxcr4, 5000 µM. Format: toxicity, cell-based.
The test system of data set [9] is Human immunodeficiency virus 1. Put plainly: MMV: HIV CXCR4-tropic env HxB2 pseudovirus assay produces luciferase signal in lieu of replicating viral particles Day 3 pi, U87-CD4-CXCR4, % inhibition at 5 mM compound. Format: functional. Further details: dose or concentration left out as unconfirmed. Particulars: Human immunodeficiency virus 1, HxB2, U87.CD4.CXCR4, 72 h.

For the molecule `COc1ccc(C(=O)C2CC2c2ccc(Cl)cc2)cc1` (stereo unspecified), the inhibition (commonly the change of the read-out against control, counted positive when it falls) was -2% in [1] and 3% in data set [4]. Besides, the “% Cell Death” value is 40 in data set [2]; 29 in data set [3]; 6 in data set [5]; 66 in data set [6]; 32 in data set [7]; 35 in data set [8].

Take `COc1ccc(-c2cc3c(SCC(=O)Nc4cc(C(F)(F)F)ccc4Cl)nccn3n2)cc1`: the inhibition in [9] stood at 6%. The “% Cell Death” value was 24 in data set [2]; 41 in data set [3]; 5 in data set [5]; -22 in data set [6]; 18 in [7]; 13 in [8].

On to `CCOC(=O)C1=C(C)N=c2sc(=Cc3ccccc3O)c(=O)n2C1c1ccc(OC)c2ccccc12` (stereo unspecified), for which the inhibition in [9] was -1%. In addition, the “% Cell Death” value in data set [2] is recorded as 105; in data set [3], 42; in data set [5], 40; in data set [6] it was 66; in data set [7], 90; in [8], 113.

As for `CCc1ccc(Nc2cc(C)nc3nc(C)nn23)cc1`, the inhibition in data set [9] is 6%. For the same molecule, the “% Cell Death” value is 23 in data set [2]; 46 in data set [3]; 4 in data set [5]; 4 in data set [6]; 50 in data set [7]; 93 in data set [8].

`CCC(c1ccccc1)c1nn2c(-c3cccs3)nnc2s1` (stereo unspecified): the inhibition in [1] came to 9%; in [4], 0%. The “% Cell Death” value in data set [2] is 3; in data set [3] it was 41; in data set [5] it was 18; in data set [6], 28; in data set [7] it was 41; in data set [8] it was 73.

For the molecule `Cc1ccc(C)c(Cn2c(N3CCC(C(=O)NCc4cccs4)CC3)nc3ccccc32)c1`, the inhibition in [9] was determined as 7%. The “% Cell Death” value was found to be 108 in data set [2]; 38 in [3]; 57 in data set [5]; 2 in data set [6]; 98 in data set [7]; 47 in data set [8].

`COc1ccccc1NC1=C(N2CCCCC2)C(=O)c2ccccc2C1=O`: the inhibition in [1] amounted to 5%; in data set [4] it was 1%. Besides, the “% Cell Death” value is 34 in [2]; 15 in data set [3]; 22 in data set [5]; 8 in [6]; 19 in data set [7]; -50 in data set [8].

For the molecule `CCOC(=O)c1c[nH]c2c(CC)cccc2c1=O`, the inhibition in data set [1] is 7%; in [4], 8%. Moreover, the “% Cell Death” value in data set [2] is reported as 39; in data set [3], 76; in data set [5], 36; in [6], 14; in data set [7], -1; in data set [8], 35.

`CCC(C)NCC(O)(c1ccc(Cl)cc1)c1ccc(Cl)cc1` (stereo unspecified): the values for the inhibition in data set [1] and in data set [4] were 2% and -2%, respectively. Besides, the “% Cell Death” value in [2] was -1; in data set [3], 23; in [5] it was -11; in data set [6] it was -33; in [7], 31; in data set [8], 3.

As for `CC1CC(C)CN(C(=O)c2ccc(Cl)cc2Cl)C1` (stereo unspecified), the inhibition in data set [1] was -1%; in data set [4] it was 5%. The “% Cell Death” value in data set [2] is -5; in data set [3], 31; in [5], -14; in data set [6], -16; in data set [7], -31; in [8] it was -51.

For `Cc1cc(Nc2ccc(Cl)cc2)n2nc(C(F)(F)F)nc2n1`, the inhibition in data set [1] came out at 2%. Moreover, the “% Cell Death” value in [2] was 27; in [3], 12; in data set [5], 46; in [6], -20; in [7], 56; in data set [8] it was -18.

Regarding `COc1ccc(C2NCCc3c2[nH]c2ccccc32)cc1CN1CCN(c2ccc(F)cc2)CC1.Cl` (stereo unspecified), in data set [1], the inhibition is 3%. The “% Cell Death” value in data set [2] is listed as 27; in data set [3], 35; in [5], 24; in data set [6] it was -8; in data set [7], 14; in [8] it was -62.

`CCOc1cc2c(cc1OCC)C(c1cc(C)c(O)c(C)c1)NCC2.Cl` (stereo unspecified): in data set [1], the inhibition was 5%. The “% Cell Death” value in data set [2] is listed as 4; in data set [3], 16; in [5], 18; in data set [6], -10; in data set [7], -3; in data set [8], -11.

As to `Br.Cc1ccc(C)c(-c2csc(Nc3ccc(C)c(C)c3)n2)c1`, in [1], the inhibition was -1%. Also, the “% Cell Death” value in data set [2] was -10; in data set [3], 21; in [5] it was 5; in [6] it was 39; in data set [7], 48; in data set [8], 28.

As to `Cc1ccc(NC(=O)Nc2cccc(Cl)c2)cc1F`, in [1], the inhibition came out at 0%. The “% Cell Death” value is -7 in data set [2]; 26 in data set [3]; 12 in [5]; -22 in data set [6]; 8 in [7]; -5 in data set [8].

Consider `Cl.Oc1ccccc1CNCC12CC3CC(CC(C3)C1)C2`, for which, in data set [1], the inhibition was determined as 3%. Besides, the “% Cell Death” value in data set [2] was -8; in [3], 15; in data set [5] it was 20; in [6], -11; in [7], 37; in data set [8] it was -2.

For the molecule `O=C(Cc1ccccc1)NC(c1ccc(Cl)cc1)c1c(O)ccc2ccccc12` (stereo unspecified), the inhibition in data set [1] is 3%. Moreover, the “% Cell Death” value is recorded as 11 in [2]; 23 in data set [3]; 18 in [5]; -8 in data set [6]; 2 in data set [7]; -16 in [8].

For the molecule `CCn1c(CN2CCN(Cc3ccccc3)CC2)nc2cc(NC(=O)c3cccs3)ccc21`, in [1], the inhibition was determined as 1%. Moreover, the “% Cell Death” value is reported as 21 in data set [2]; 21 in data set [3]; 12 in data set [5]; -27 in data set [6]; 10 in data set [7]; -27 in data set [8].

`Cc1ccc2cc3c(N)c4c(C)ccc(C)c4nc3nc2c1`: the inhibition in data set [1] amounted to 5%. Moreover, the “% Cell Death” value in data set [2] was -9; in [3], -14; in data set [5], 46; in data set [6], -5; in data set [7], 18; in data set [8], 31.

Regarding `O=C(Nc1ccsc1C(=O)NC1CCCCC1)c1ccc(F)cc1`, the inhibition in data set [1] was 3%; in data set [4], -2%. The “% Cell Death” value in [2] was -22; in data set [3] it was 8; in data set [5], -4; in [6], -43; in data set [7], -2; in data set [8] it was -14.

Consider `CCCCc1c(CCC)c(=N)c2ccccc2n1C.I`, for which the inhibition in [1] was 7%. Moreover, the “% Cell Death” value in [2] is reported as -13; in data set [3], 21; in data set [5], 27; in data set [6], 55; in data set [7], -4; in data set [8], -12.

As to `CC1CCN(Cc2ccc(NC(=O)c3cc4ccc5cccnc5c4[nH]3)cc2)CC1`, the inhibition in data set [1] is -1%. In addition, the “% Cell Death” value in data set [2] was 9; in data set [3], 23; in data set [5], 17; in data set [6] it was -14; in data set [7], 3; in data set [8], -7.

For the molecule `OC(CNCC1CCCO1)Cn1c2ccc(Cl)cc2c2cc(Cl)ccc21` (stereo unspecified), the inhibition in [1] came to 0%. For the same molecule, the “% Cell Death” value is recorded as 11 in data set [2]; 15 in [3]; 26 in data set [5]; -28 in data set [6]; -2 in data set [7]; -7 in [8].

For `Cc1cc(NC(=O)C2c3ccccc3C(=O)N(CC(C)C)C2c2cccs2)no1` (stereo unspecified), the inhibition amounted to 8% in data set [1] and 7% in data set [4]. Besides, the “% Cell Death” value in data set [2] is given as 23; in [3], 26; in [5] it was 55; in [6], -20; in [7], 36; in data set [8], -16.
